Data on two compounds can be found in publication PMC10572522, “A Designed Analog of an Antimicrobial Peptide, Crabrolin, Exhibits Enhanced Anti-Proliferative and In Vivo Antimicrobial Activity” (International Journal of Molecular Sciences, 2023).

Residues, ends and D or L forms follow the SMILES beside them.

One data set concerns S. aureus (NCTC 10788). The data set can be described thus: Antimicrobial susceptibility assay (MIC/MBC). The data set is classed as cell-based, Staphylococcus aureus. To be noted: for MIC: MHB, 37 °C, 20 h. The method, then: (§1) Six bacteria were tested in this experiment to detect the antimicrobial effects of crabrolin and its derivatives, including S. aureus (NCTC 10788), MRSA (NCTC 12493), E. coli (ATCC 8739), K. pneumoniae (ATCC 43816), E. faecium (NTCC-12697), and P. aeruginosa (ATCC 9027). The tested bacteria were cultured in Mueller Hinton broth medium (MHB) with norfloxacin (20 mg/L) as a positive control. All bacteria were incubated at 37 °C overnight and diluted to 5 × 10^5 CFU/mL before treating with the peptides. Stock solutions of 51,200 µM peptides were prepared in phosphate-buffered saline (PBS) and further diluted by a factor of two to 100 µM. Next, 1 µL of each peptide solution was mixed with 99 µL of bacterial subculture in a 96-well plate, and the plate was incubated at 37 °C for 20 h. After culturing, the absorbance of each well in the 96-well plate was analyzed at 550 nm using a Synergy HT plate reader (BioliseBioTek, Winooski, VT, USA). […] Starting with the MIC value, 10 µL of the solution from each well was dripped onto Mueller Hinton agar (MHA) plates. The plates were cultured at 37 °C for 20 h. After culturing, the lowest concentration with no colony growth was regarded as the MBC.

Data set [1] deals with K. pneumoniae (ATCC 43816). The data set can be described thus: Antimicrobial susceptibility assay (MIC/MBC). The class given is cell-based, Klebsiella pneumoniae. To be noted: for MIC: MHB, 37 °C, 20 h. As to the method: as §1
A further data set relates to E. faecium (NTCC 12697). The data set can be described thus: Antimicrobial susceptibility assay (MIC/MBC). The class given is cell-based, Enterococcus faecium. To be noted: for MIC: MHB, 37 °C, 20 h. As to the method: as §1
The test system of data set [2] is P. aeruginosa (ATCC 9027). The data set can be described thus: Antimicrobial susceptibility assay (MIC/MBC). The data set is classed as cell-based, Pseudomonas aeruginosa. As to conditions: for MIC: MHB, 37 °C, 20 h. As to the method: as §1
Data set [3] relates to human breast cancer cell line MCF-7. The data set can be described thus: Anti-proliferative assay (MTT). The class given is cell-based. To be noted: MCF-7, MTT, 24 h. As to the method:
(§2) The human non-small-cell lung cancer line, H838, the human prostate carcinoma cell line, PC-3, the human glioblastoma astrocytoma, U251MG, the human breast cancer cell line, MCF-7, the human colorectal carcinoma cell line, HCT116, and the human keratinocyte cell line, HaCaT, were used to detect the anti-proliferative effects of the crabrolin and its derivatives in vitro. A total of 8000 cells were seeded in each well of a 96-well plate. After the cells had adhered to the wall, the cells were starved for 4 h. After the starvation, the cells were incubated with different concentrations of the drugs, ranging from 100 µM to 1 nM, for 24 h, with 0.1% Triton X-100 used as a positive control. Next, 10 µL of MTT (3-(4,5-dimethylthiazol-2-yl)-2,5-diphenyltetrazolium bromide) solution (5 mg/mL) was added to each well of the 96-well plate. After 2 h of incubation, 100 μL of DMSO-superseded medium was added to each well to dissolve the formazan crystals. Finally, the absorbance was detected using a Synergy HT plate reader at 570 nm.

The test system of data set [4] is human colorectal carcinoma cell line HCT-116. Briefly: Anti-proliferative assay (MTT). The data set is classed as cell-based. As to conditions: HCT-116, MTT, 24 h. As to the method: as §2
For data set [5], the system named is human glioblastoma astrocytoma U251MG. The data set can be described thus: Anti-proliferative assay (MTT). The data set is classed as cell-based. To be noted: 24 h. The method, then:
as §2

Data set [6] has as its system human keratinocyte cell line HaCaT. Briefly: Anti-proliferative assay (MTT). The class given is cell-based. To be noted: HaCaT (normal keratinocytes), 24 h. The method, then: as §2
Data set [7] concerns human non-small-cell lung cancer line H838. The data set can be described thus: Anti-proliferative assay (MTT). The data set is classed as cell-based. To be noted: 24 h. As to the method:
as §2

In data set [8] the test system is human prostate carcinoma cell line PC-3. The data set can be described thus: Anti-proliferative assay (MTT). The class given is cell-based. To be noted: PC3, MTT, 24 h. The method, then: as §2
A further data set in a line: Hemolysis assay. The class given is cell-based, horse. As to conditions: horse, erythrocytes (2% suspension); for hemolysis at 2 h: at the peptide's maximum MIC, relative to Triton X-100, read-out: Hemolysis under the Maximum MIC. As to the method:
(§3) According to the procedures described in detail in a previous study, the debris and impurities of the erythrocytes were washed with PBS in advance to yield 2% of the erythrocyte suspension, and the drug concentration was diluted from 1024 µM to 2 µM with PBS [53]. The same amounts of the drug and the erythrocyte suspension were mixed and cultured at 37 °C for 2 h; 0.1% Triton X-100 (Sigma-Aldrich, St. Louis, MO, USA) was prepared as a positive control, and PBS was prepared as a negative control. After the incubation, the supernatant was transferred to a 96-well plate and then detected using a Synergy HT plate reader at 570 nm.

For another data set, the system named is horse erythrocytes. The data set can be described thus: Hemolysis assay. The class given is cell-based. As to conditions: for HC10 (10% hemolytic concentration) / HC50 (50% hemolytic concentration): erythrocytes, 37 °C, 2 h. As to the method:
as §3

Data set [9] has as its system Galleria mellonella larvae. The data set can be described thus: Toxicity to Galleria mellonella larvae without infection. The data set is classed as in vivo. As to conditions: highest dose (50 mg/kg).

As to `CC[C@H](C)[C@H](NC(=O)[C@H](CC(C)C)NC(=O)[C@@H]1CCCN1C(=O)[C@H](CC(C)C)NC(=O)[C@@H](N)Cc1ccccc1)C(=O)N[C@@H](CC(C)C)C(=O)N[C@@H](CCCNC(=N)N)C(=O)N[C@@H](CCCCN)C(=O)N[C@H](C(=O)N[C@H](C(=O)N[C@H](C(=O)N[C@@H](C)C(=O)N[C@@H](CC(C)C)C(N)=O)[C@@H](C)O)C(C)C)[C@@H](C)CC` [Crabrolin, FLPLILRKIVTAL-NH2] (H-FLPLILRKIVTAL-NH2), the minimum bactericidal concentration (MBC) (usually the smallest concentration meeting the test's criterion for killing) in the data set with S. aureus (NCTC 10788) amounted to 4 µM; in [1], 128 µM; with E. faecium (NTCC 12697) it was 64 µM; in [2] it was 256 µM. Further, the MIC (as a rule, the lowest concentration found to suppress growth) with S. aureus (NCTC 10788) is recorded as 2 µM; in [1], 64 µM; in the data set with E. faecium (NTCC 12697) it was 16 µM; in data set [2], 128 µM. Also, the IC50 (as a rule, the midpoint of a concentration-inhibition curve) was determined as 26.5 µM in data set [3]; 8.54 µM in data set [4]; 20.1 µM in data set [5]; 31.2 µM in data set [6]; 27.7 µM in data set [7]; 32.1 µM in [8]. Moreover, the hemolysis at 2 h in “Hemolysis assay” worked out at 53.5%. For the same compound, the Hemolytic activity in the data set on horse erythrocytes (256 µM) is listed as 100%. Also, the “HC10 (10% hemolytic concentration)” value in the data set with horse erythrocytes was 34.575 µM. In the data set with horse erythrocytes, the “HC50 (50% hemolytic concentration)” value came out at 120.654 µM. Besides, in data set [9], the “Death of healthy larvae” value is “did not result in the death of healthy larvae”.

As to `CC[C@H](C)[C@H](NC(=O)[C@H](CCCNC(=N)N)NC(=O)[C@@H]1CCCN1C(=O)[C@H](CC(C)C)NC(=O)[C@@H](N)Cc1ccccc1)C(=O)N[C@@H](CC(C)C)C(=O)N[C@@H](CCCNC(=N)N)C(=O)N[C@@H](CCCCN)C(=O)N[C@H](C(=O)N[C@H](C(=O)N[C@@H](CCCNC(=N)N)C(=O)N[C@@H](C)C(=O)N[C@@H](CC(C)C)C(N)=O)C(C)C)[C@@H](C)CC` [Crabrolin-TR, FLPRILRKIVRAL-NH2] (H-FLPRILRKIVRAL-NH2), the minimal bactericidal concentration (MBC) in the data set with S. aureus (NCTC 10788) worked out at 2 µM; in [1], 8 µM; in the data set with E. faecium (NTCC 12697), 8 µM; in [2], 8 µM. Besides, the minimal inhibitory concentration (MIC) in the data set with S. aureus (NCTC 10788) came out at 1 µM; in data set [1] it was 8 µM; in the data set with E. faecium (NTCC 12697), 4 µM; in data set [2] it was 4 µM. Besides, the concentration for half-maximal inhibition (IC50) is 3.46 µM in data set [3]; < 10 µM in data set [3] (listed as crabrolin-TR); 2.81 µM in data set [4]; 12.4 µM in data set [5]; > 10 µM in data set [5] (listed as crabrolin-TR); 20.9 µM in [6]. For the same compound, the IC50 in data set [7] was 4.64 µM; in data set [7] (listed as crabrolin-TR) it was < 10 µM; in data set [8] it was 3.94 µM; in data set [8] (listed as crabrolin-TR) it was < 10 µM. Further, the hemolysis at 2 h, 100 µM in “Hemolysis assay” (100 μM) is ~50%. Further, in the data set “Hemolysis assay”, the hemolysis at 2 h is 3.76%. Further, the Hemolysis entry with horse erythrocytes (8 μM) is recorded as “neither crabrolin-TR nor crabrolin21 caused hemolysis”. Also, the “HC10 (10% hemolytic concentration)” value in the data set with horse erythrocytes was 36.041 µM. The “HC50 (50% hemolytic concentration)” value with horse erythrocytes came out at 211.927 µM. In addition, the “Death of healthy larvae” value in data set [9] is recorded as “did not result in the death of healthy larvae”.
